pIC50: −log10 of the molar value.
Test system: 299254-011-R-J1-PDC complex spheroids viability
Assay: Anticancer human tumor 299254-011-R-J1-PDC patient-derived melanoma cell line growth inhibition [GQUAD]
Conditions: for pIC50: curve of first compound; for viability, T/C: stronger effect = lower value
In short: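 Tumor cells were grown as complex spheroids with HUVEC endothelial cells and mesenchymal stem cells as stroma. G-quadruplex stabilizers were combined with targeted agents over half-log dilutions from near the clinical Cmax, or from 10 microM.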

[1] = second compound 0.0316 µM, first compound 0.0316 µM
[2] = second compound 0.0316 µM, first compound 0.1 µM
[3] = second compound 0.0316 µM, first compound 0.316 µM
[4] = second compound 0.0316 µM, first compound 1 µM
[5] = second compound 0.0316 µM, first compound 3.16 µM
[6] = second compound 0.0316 µM, first compound 10 µM
[7] = second compound 0.1 µM, first compound 0.0316 µM
[8] = second compound 0.1 µM, first compound 0.1 µM
[9] = second compound 0.1 µM, first compound 0.316 µM
[10] = second compound 0.1 µM, first compound 1 µM
[11] = second compound 0.1 µM, first compound 3.16 µM
[12] = second compound 0.1 µM, first compound 10 µM
[13] = second compound 0.316 µM, first compound 0.0316 µM
[14] = second compound 0.316 µM, first compound 0.1 µM
[15] = second compound 0.316 µM, first compound 0.316 µM
[16] = second compound 0.316 µM, first compound 1 µM
[17] = second compound 0.316 µM, first compound 3.16 µM
[18] = second compound 0.316 µM, first compound 10 µM
[19] = second compound 1 µM, first compound 0.0316 µM
[20] = second compound 1 µM, first compound 0.1 µM
[21] = second compound 1 µM, first compound 0.316 µM
[22] = second compound 1 µM, first compound 1 µM
[23] = second compound 1 µM, first compound 3.16 µM
[24] = second compound 1 µM, first compound 10 µM
[25] = second compound 3.16 µM, first compound 0.0316 µM
[26] = second compound 3.16 µM, first compound 0.1 µM
[27] = second compound 3.16 µM, first compound 0.316 µM
[28] = second compound 3.16 µM, first compound 1 µM
[29] = second compound 3.16 µM, first compound 3.16 µM
[30] = second compound 3.16 µM, first compound 10 µM
[31] = second compound 10 µM, first compound 0.0316 µM
[32] = second compound 10 µM, first compound 0.1 µM
[33] = second compound 10 µM, first compound 0.316 µM
[34] = second compound 10 µM, first compound 1 µM
[35] = second compound 10 µM, first compound 3.16 µM
[36] = second compound 10 µM, first compound 10 µM
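Further: spheroids exposed to the agents for seven days before readout.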
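Wherever viability, T/C is given: percent viability relative to DMSO vehicle control wells = 100%.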

Question: Which results are given for `C#Cc1c(F)ccc2cc(O)cc(-c3ncc4c(N5CC6CCC(C5)N6)nc(OCC56CCCN5CC(F)C6)nc4c3F)c12` (stereo unspecified) + Cc1cnc(CNC(=O)c2c(=O)c3ccc(N4CCCN(C)CC4)nc3n3c2sc2ccccc23)cn1?
Answer: pIC50 (second compound 0.0316 µM): < 5.00; pIC50 (second compound 0.1 µM): < 5.00; pIC50 (second compound 0.316 µM): < 5.00; pIC50 (second compound 1 µM): < 5.00; pIC50 (second compound 3.16 µM): < 5.00; pIC50 (second compound 10 µM): > 7.50; viability, T/C [1]: 108%; viability, T/C [2]: 87.8%; viability, T/C [3]: 102%; viability, T/C [4]: 93%; viability, T/C [5]: 96.2%; viability, T/C [6]: 79.8%; viability, T/C [7]: 123%; viability, T/C [8]: 99.2%; viability, T/C [9]: 122%; viability, T/C [10]: 91.7%; viability, T/C [11]: 103%; viability, T/C [12]: 80.5%; viability, T/C [13]: 113%; viability, T/C [14]: 115%; viability, T/C [15]: 117%; viability, T/C [16]: 87.1%; viability, T/C [17]: 91.1%; viability, T/C [18]: 74.1%; viability, T/C [19]: 81%; viability, T/C [20]: 105%; viability, T/C [21]: 94.4%; viability, T/C [22]: 102%; viability, T/C [23]: 83.1%; viability, T/C [24]: 85.6%; viability, T/C [25]: 74.8%; viability, T/C [26]: 103%; viability, T/C [27]: 99.8%; viability, T/C [28]: 85.8%; viability, T/C [29]: 83.4%; viability, T/C [30]: 88.6%; viability, T/C [31]: 50.6%; viability, T/C [32]: 18.7%; viability, T/C [33]: 43.6%; viability, T/C [34]: 33.4%; viability, T/C [35]: 51.3%; viability, T/C [36]: 0.39%

Question: `O=C(NO)c1cnc(N2CCN(S(=O)(=O)c3ccc4ccccc4c3)CC2)nc1` + Cc1[nH]c2ccc(F)cc2c1-c1nc2c3cccnc3c3ncccc3c2[nH]1 was tested. Which pIC50 (second compound 0.0316 µM) did it give?
Answer: Its pIC50 is 6.30.

Question: And the pIC50 (second compound 0.1 µM)?
Answer: Its pIC50 is 6.22.

Question: And the pIC50 (second compound 0.316 µM)?
Answer: Its pIC50 is 6.01.

Question: And the pIC50 (second compound 1 µM)?
Answer: The pIC50 was 5.82.

Question: And the pIC50 (second compound 3.16 µM)?
Answer: The pIC50 was 5.89.

Question: And the pIC50 (second compound 10 µM)?
Answer: The pIC50 was 5.83.

Question: What about the viability, T/C [1] of the same compound?
Answer: Its viability, T/C is 119%.

Question: What about the viability, T/C [2] of the same compound?
Answer: Its viability, T/C is 98%.

Question: What about the viability, T/C [3] of the same compound?
Answer: The viability, T/C was 76.8%.

Question: And the viability, T/C [4]?
Answer: Its viability, T/C is 9.39%.

Question: What about the viability, T/C [5] of the same compound?
Answer: Its viability, T/C is 0.24%.

Question: What about the viability, T/C [6] of the same compound?
Answer: Its viability, T/C is 0.27%.

Question: And the viability, T/C [7]?
Answer: The viability, T/C was 99.2%.

Question: What about the viability, T/C [8] of the same compound?
Answer: Its viability, T/C is 111%.

Question: What about the viability, T/C [9] of the same compound?
Answer: The viability, T/C was 90.2%.

Question: What about the viability, T/C [10] of the same compound?
Answer: The viability, T/C was 18.1%.

Question: And the viability, T/C [11]?
Answer: Its viability, T/C is 0.2%.

Question: What about the viability, T/C [12] of the same compound?
Answer: The viability, T/C was 0.25%.

Question: And the viability, T/C [13]?
Answer: The viability, T/C was 91.4%.

Question: And the viability, T/C [14]?
Answer: Its viability, T/C is 102%.

Question: What about the viability, T/C [15] of the same compound?
Answer: The viability, T/C was 88.8%.

Question: And the viability, T/C [16]?
Answer: Its viability, T/C is 50.3%.

Question: And the viability, T/C [17]?
Answer: Its viability, T/C is 0.17%.

Question: And the viability, T/C [18]?
Answer: The viability, T/C was 0.21%.

Question: And the viability, T/C [19]?
Answer: Its viability, T/C is 112%.

Question: What about the viability, T/C [20] of the same compound?
Answer: The viability, T/C was 91.6%.

Question: And the viability, T/C [21]?
Answer: The viability, T/C was 80.9%.

Question: What about the viability, T/C [22] of the same compound?
Answer: Its viability, T/C is 79.2%.

Question: And the viability, T/C [23]?
Answer: Its viability, T/C is 0.19%.

Question: And the viability, T/C [24]?
Answer: The viability, T/C was 0.22%.

Question: What about the viability, T/C [25] of the same compound?
Answer: Its viability, T/C is 99.2%.

Question: What about the viability, T/C [26] of the same compound?
Answer: Its viability, T/C is 120%.

Question: What about the viability, T/C [27] of the same compound?
Answer: Its viability, T/C is 108%.

Question: What about the viability, T/C [28] of the same compound?
Answer: The viability, T/C was 64.5%.

Question: And the viability, T/C [29]?
Answer: Its viability, T/C is 0.22%.

Question: What about the viability, T/C [30] of the same compound?
Answer: Its viability, T/C is 0.21%.

Question: What about the viability, T/C [31] of the same compound?
Answer: Its viability, T/C is 87.8%.

Question: And the viability, T/C [32]?
Answer: Its viability, T/C is 103%.

Question: What about the viability, T/C [33] of the same compound?
Answer: Its viability, T/C is 99.6%.

Question: What about the viability, T/C [34] of the same compound?
Answer: Its viability, T/C is 75.4%.

Question: And the viability, T/C [35]?
Answer: The viability, T/C was 0.25%.

Question: And the viability, T/C [36]?
Answer: The viability, T/C was 0.25%.

Question: With `C=CCn1c(=O)c2cnc(Nc3ccc(N4CCN(C)CC4)cc3)nc2n1-c1cccc(C(C)(C)O)n1` + Cc1cnc(CNC(=O)c2c(=O)c3ccc(N4CCCN(C)CC4)nc3n3c2sc2ccccc23)cn1 as the compound, how does the pIC50 (second compound 0.0316 µM) read?
Answer: Its pIC50 is 5.81.

Question: And the pIC50 (second compound 0.1 µM)?
Answer: Its pIC50 is 5.82.

Question: What about the pIC50 (second compound 0.316 µM) of the same compound?
Answer: Its pIC50 is 5.93.

Question: And the pIC50 (second compound 1 µM)?
Answer: The pIC50 was 6.17.

Question: What about the pIC50 (second compound 3.16 µM) of the same compound?
Answer: The pIC50 was 6.22.

Question: And the pIC50 (second compound 10 µM)?
Answer: Its pIC50 is over 7.50.

Question: And the viability, T/C [1]?
Answer: Its viability, T/C is 118%.

Question: What about the viability, T/C [2] of the same compound?
Answer: Its viability, T/C is 109%.

Question: And the viability, T/C [3]?
Answer: Its viability, T/C is 100%.

Question: And the viability, T/C [4]?
Answer: The viability, T/C was 55.2%.

Question: And the viability, T/C [5]?
Answer: Its viability, T/C is 41%.

Question: And the viability, T/C [6]?
Answer: Its viability, T/C is 25.3%.

Question: What about the viability, T/C [7] of the same compound?
Answer: The viability, T/C was 109%.

Question: And the viability, T/C [8]?
Answer: Its viability, T/C is 112%.

Question: What about the viability, T/C [9] of the same compound?
Answer: Its viability, T/C is 77.3%.

Question: What about the viability, T/C [10] of the same compound?
Answer: Its viability, T/C is 64.2%.

Question: What about the viability, T/C [11] of the same compound?
Answer: The viability, T/C was 31.5%.

Question: What about the viability, T/C [12] of the same compound?
Answer: Its viability, T/C is 27.1%.

Question: What about the viability, T/C [13] of the same compound?
Answer: The viability, T/C was 89.8%.

Question: What about the viability, T/C [14] of the same compound?
Answer: The viability, T/C was 125%.

Question: What about the viability, T/C [15] of the same compound?
Answer: Its viability, T/C is 88.2%.

Question: What about the viability, T/C [16] of the same compound?
Answer: Its viability, T/C is 55%.

Question: What about the viability, T/C [17] of the same compound?
Answer: Its viability, T/C is 30.1%.

Question: And the viability, T/C [18]?
Answer: The viability, T/C was 30.1%.

Question: And the viability, T/C [19]?
Answer: Its viability, T/C is 75.3%.

Question: What about the viability, T/C [20] of the same compound?
Answer: Its viability, T/C is 80.8%.

Question: And the viability, T/C [21]?
Answer: Its viability, T/C is 71.9%.

Question: What about the viability, T/C [22] of the same compound?
Answer: Its viability, T/C is 38.6%.

Question: What about the viability, T/C [23] of the same compound?
Answer: Its viability, T/C is 27.9%.

Question: What about the viability, T/C [24] of the same compound?
Answer: The viability, T/C was 24.4%.

Question: And the viability, T/C [25]?
Answer: Its viability, T/C is 73.3%.

Question: What about the viability, T/C [26] of the same compound?
Answer: Its viability, T/C is 74.9%.

Question: What about the viability, T/C [27] of the same compound?
Answer: The viability, T/C was 55.5%.

Question: What about the viability, T/C [28] of the same compound?
Answer: Its viability, T/C is 44.4%.

Question: What about the viability, T/C [29] of the same compound?
Answer: Its viability, T/C is 28.9%.

Question: And the viability, T/C [30]?
Answer: Its viability, T/C is 20.2%.

Question: And the viability, T/C [31]?
Answer: Its viability, T/C is 19%.

Question: And the viability, T/C [32]?
Answer: Its viability, T/C is 15.2%.

Question: What about the viability, T/C [33] of the same compound?
Answer: The viability, T/C was 41.8%.

Question: What about the viability, T/C [34] of the same compound?
Answer: Its viability, T/C is 36.9%.

Question: And the viability, T/C [35]?
Answer: Its viability, T/C is 0.45%.

Question: And the viability, T/C [36]?
Answer: The viability, T/C was 0.32%.

— PubChem BioAssay AID2060513 (Molecular Pharmacology Branch, DTP, NCI, 2025)
